From the supplement of paper PMC10307832 come the findings set out here.

What all share (assay): relative viability (nuclei count vs DMSO), 5 days (fraction); higher = more cells survive
Compound in the experiment “Doramapimod + Pemetrexed”: Cc1ccc(-n2nc(C(C)(C)C)cc2NC(=O)Nc2ccc(OCCN3CCOCC3)c3ccccc23)cc1 [Doramapimod] + Nc1nc2[nH]cc(CCc3ccc(C(=O)N[C@@H](CCC(=O)O)C(=O)O)cc3)c2c(=O)[nH]1 [Pemetrexed] (partner 0.2 µM)
Summed up:
(§1)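 After 5 days of treatment, lung cancer cells in 1536-well plates were fixed and stained in a single step (final 0.05% Triton X-100, 1% formaldehyde, 1 ug/ml Hoechst) and their nuclei counted on 4× images. Treatment had been applied by pin tool the day after seeding as one drug alone or as a fixed anchor-drug dose with five library-drug doses (not always all listed) in √10 steps. Relative viability is the nuclei count of treated wells divided by that of vehicle wells, and values are medians of duplicate plates.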

Compound in the experiment “Doramapimod + Luminespib”: Cc1ccc(-n2nc(C(C)(C)C)cc2NC(=O)Nc2ccc(OCCN3CCOCC3)c3ccccc23)cc1 [Doramapimod] + CCNC(=O)c1noc(-c2cc(C(C)C)c(O)cc2O)c1-c1ccc(CN2CCOCC2)cc1 [Luminespib] (partner 0.01 µM)
Summed up: as §1

Compound in the experiment “RAF265 + Pemetrexed”: Cn1c(Nc2ccc(C(F)(F)F)cc2)nc2cc(Oc3ccnc(-c4ncc(C(F)(F)F)[nH]4)c3)ccc21 [RAF265] + Nc1nc2[nH]cc(CCc3ccc(C(=O)N[C@@H](CCC(=O)O)C(=O)O)cc3)c2c(=O)[nH]1 [Pemetrexed] (partner 0.2 µM)
An outline of the steps: as §1

Compound in experiment [1]: Cc1ccc(-n2nc(C(C)(C)C)cc2NC(=O)Nc2ccc(OCCN3CCOCC3)c3ccccc23)cc1 [Doramapimod] + CC(=O)c1c(C)c2cnc(Nc3ccc(N4CCNCC4)cn3)nc2n(C2CCCC2)c1=O [Palbociclib] (partner 0.5 µM)
Summed up:
as §1

On to UMC-11, for which the relative viability came out at 0.711 with Doramapimod + Pemetrexed (first compound 0.02 µM); 0.739 with Doramapimod + Pemetrexed (first compound 0.06325 µM); 0.75 in the experiment with Doramapimod + Pemetrexed (first compound 0.2 µM); 0.708 with Doramapimod + Pemetrexed (first compound 0.6325 µM); 0.743 in the experiment with Doramapimod + Pemetrexed (first compound 2 µM); 0.911 in the experiment with Doramapimod + Luminespib (first compound 0.02 µM). For the same cell line, the relative viability in the experiment with Doramapimod + Luminespib (first compound 0.06325 µM) was determined as 0.869; with Doramapimod + Luminespib (first compound 0.2 µM), 0.904; with Doramapimod + Luminespib (first compound 0.6325 µM), 0.965; in the experiment with Doramapimod + Luminespib (first compound 2 µM) it was 0.913; with RAF265 + Pemetrexed (first compound 0.01 µM), 0.689; with RAF265 + Pemetrexed (first compound 0.03162 µM), 0.854. In addition, the relative viability with RAF265 + Pemetrexed (first compound 0.1 µM) worked out at 0.764; with RAF265 + Pemetrexed (first compound 0.3162 µM) it was 0.761; in the experiment with RAF265 + Pemetrexed (first compound 1 µM), 0.639; in experiment [1] (first compound 0.02 µM) it was 0.342; in experiment [1] (first compound 0.06325 µM), 0.328; in experiment [1] (first compound 0.2 µM), 0.313. Besides, the relative viability was 0.323 in experiment [1] (first compound 0.6325 µM) and 0.308 in experiment [1] (first compound 2 µM).
